Read-outs that look alike come from different tables or passages of the source.
Assays:
[1] = test system: p-IKKa levels in L363 (NIK translocated multiple myeloma) cells; test: Effect of compounds on p-IKKa levels in L363 (NIK translocated multiple myeloma) cells (AlphaLISA SureFire Ultra p-IKKa Ser176/180); format: cell-based, human; conditions: average if tested more than once, read-out: Assay 2 IC50
Procedure, shortened: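 L363 multiple myeloma cells, BAFF-stimulated overnight (250 ng/ml), then 6 h at 37 °C with compound (11-point 1:3 series, 0.3% DMSO) plus BAFF and 10 μM MG132. p-IKKa Ser176/180 read by AlphaLISA SureFire Ultra; IC50 from sigmoidal fit normalised to stimulated and unstimulated controls.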

[2] = target: Recombinant Human NF-kappaB-Inducing Kinase (NIK/MAP3K14) (Homo sapiens, UniProt Q99558); test: Inhibition of auto-phosphorylation of recombinant human NIK/MAP3K14 activity (AlphaScreen); format: biochemical; conditions: 5 μM ATP, 1 nM NIK, average if tested more than once
Procedure, shortened: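 GST-tagged NIK (1 nM) auto-phosphorylation with 5 μM ATP, 2 h at 25 °C, pH 7.5 Tris buffer, 0.7% DMSO; stopped with anti-phospho-IKK Ser176/180 antibody and read by AlphaScreen. Signal normalized to full-activity and no-enzyme/no-ATP controls; IC50 from sigmoidal fit of % inhibition vs log concentration.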

[3] = Homo sapiens, L-363, p-IKKa levels in L363 cells

Sequence of Recombinant Human NF-kappaB-Inducing Kinase (NIK/MAP3K14) (Q99558 whole entry): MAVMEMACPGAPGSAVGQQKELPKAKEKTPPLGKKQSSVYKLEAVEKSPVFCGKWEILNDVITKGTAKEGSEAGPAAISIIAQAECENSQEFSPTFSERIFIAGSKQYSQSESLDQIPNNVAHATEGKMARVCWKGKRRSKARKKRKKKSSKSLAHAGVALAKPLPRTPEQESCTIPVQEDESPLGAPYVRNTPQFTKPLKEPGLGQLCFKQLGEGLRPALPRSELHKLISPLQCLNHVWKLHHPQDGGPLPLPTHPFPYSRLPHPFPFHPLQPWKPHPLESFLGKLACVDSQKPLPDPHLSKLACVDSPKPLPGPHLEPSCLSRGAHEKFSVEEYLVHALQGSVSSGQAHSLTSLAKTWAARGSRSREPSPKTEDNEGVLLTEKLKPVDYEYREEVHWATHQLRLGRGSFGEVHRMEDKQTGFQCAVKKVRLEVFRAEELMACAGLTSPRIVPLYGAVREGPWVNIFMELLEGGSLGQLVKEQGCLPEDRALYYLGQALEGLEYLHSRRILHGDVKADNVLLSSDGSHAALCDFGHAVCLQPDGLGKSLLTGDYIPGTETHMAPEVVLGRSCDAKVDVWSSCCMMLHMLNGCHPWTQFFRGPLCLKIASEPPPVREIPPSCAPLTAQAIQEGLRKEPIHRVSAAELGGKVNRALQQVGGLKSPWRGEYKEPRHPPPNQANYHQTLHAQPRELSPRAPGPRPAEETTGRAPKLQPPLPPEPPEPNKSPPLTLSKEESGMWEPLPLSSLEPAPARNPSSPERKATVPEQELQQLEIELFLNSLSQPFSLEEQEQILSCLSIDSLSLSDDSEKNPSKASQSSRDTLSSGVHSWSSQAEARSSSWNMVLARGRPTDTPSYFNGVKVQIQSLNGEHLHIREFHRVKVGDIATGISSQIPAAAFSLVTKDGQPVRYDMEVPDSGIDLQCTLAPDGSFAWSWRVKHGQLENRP

SMILES	IC50 ([1]; p-IKKa levels in L363 cells) [nM]	IC50 [2] [nM]	IC50 [1, 3] [nM]
CN1C(=O)[C@@](O)(c2cccc(-c3nc(-c4ccnc(Nc5ccn(C)n5)n4)cs3)c2)C[C@H]1C(F)(F)F (relative stereo) [Example 38, (trans)-3-hydroxy-1-methyl-3-(3-(4-(2-((1-methyl-1H-pyrazol-3-yl)amino)pyrimidin-4-yl)thiazol-2-yl)phenyl)-5-(trifluoromethyl)pyrrolidin-2-one]	100 to 500	< 100	–
CCn1ncc(C)c1Nc1nccc(-c2csc(-c3cccc([C@]4(O)CCN(C)C4=O)c3)n2)n1 [Example 64, (R)-3-(3-(4-(2-((1-ethyl-4-methyl-1H-pyrazol-5-yl)amino)pyrimidin-4-yl)thiazol-2-yl)phenyl)-3-hydroxy-1-methylpyrrolidin-2-one]	–	> 501	> 501
CN1CC[C@@](O)(c2ccnc(-c3csc(-c4ccnc(Nc5cnn(C)c5)n4)n3)c2)C1=O (single isomer, unassigned) [Example 151]	–	< 100	< 100
CN1CC[C@@](O)(c2cc(-c3csc(-c4ccnc(Nc5ccn(C)n5)n4)n3)ccc2F)C1=O (single isomer, unassigned) [Example 24]	–	> 501	> 501
CN1CC[C@@](O)(c2ccnc(-c3ccn(-c4ccnc(Nc5cn(CC(F)F)nc5OC5CC5)n4)n3)c2)C1=O (single isomer, unassigned) [Example 154, (R)-3-(2-(1-(2-((3-cyclopropoxy-1-(2,2-difluoroethyl)-1H-pyrazol-4-yl)amino)pyrimidin-4-yl)-1H-pyrazol-3-yl)pyridin-4-yl)-3-hydroxy-1-methylpyrrolidin-2-one or (S)-3-(2-(1-(2-((3-cyclopropoxy-1-(2,2-difluoroethyl)-1H-pyrazol-4-yl)amino)pyrimidin-4-yl)-1H-pyrazol-3-yl)pyridin-4-yl)-3-hydroxy-1-methylpyrrolidin-2-one]	–	< 100	< 100
CN1CC[C@@](O)(c2cccc(-c3nc(-c4ccnc(N[C@H]5CCOC5)n4)cs3)c2)C1=O [Example 250]	–	< 100	> 501
CN1CC(F)(F)C(O)(c2cccc(-c3nc(-c4ccnc(Nc5ccn(C)n5)n4)cs3)c2)C1=O (single isomer, unassigned) [Example 35, 4,4-difluoro-3-hydroxy-1-methyl-3-(3-(4-(2-((1-methyl-1H-pyrazol-3-yl)amino)pyrimidin-4-yl)thiazol-2-yl)phenyl)pyrrolidin-2-one]	> 501	> 501	–
Cc1ncc(C#N)cc1Nc1nccc(-c2csc(-c3cccc([C@]4(O)CCN(C)C4=O)c3)n2)n1 [Example 8, (R)-5-((4-(2-(3-(3-Hydroxy-1-methyl-2-oxopyrrolidin-3-yl)phenyl)thiazol-4-yl)pyrimidin-2-yl)amino)-6-methylnicotinonitrile]	–	< 100	100 to 500
CN1CCC(O)(c2cc(C#N)cc(-c3csc(-c4ccnc(Nc5ccn(C)n5)n4)n3)c2)C1=O (single isomer, unassigned) [Example 57, 3-(3-hydroxy-1-methyl-2-oxopyrrolidin-3-yl)-5-(2-(2-((1-methyl-1H-pyrazol-3-yl)amino)pyrimidin-4-yl)thiazol-4-yl)benzonitrile]	–	< 100	> 501
CN1CC[C@@](O)(c2cccc(-c3nc(-c4ccnc(NCCCS(C)(=O)=O)n4)cs3)c2)C1=O [Example 232]	–	100 to 500	> 501
CN1CC[C@@](O)(c2cccc(-c3nc(-c4ccnc(Nc5cccnc5)n4)cs3)c2)C1=O [Example 68, (R)-3-hydroxy-1-methyl-3-(3-(4-(2-(pyridin-3-ylamino)pyrimidin-4-yl)thiazol-2-yl)phenyl)pyrrolidin-2-one]	–	> 501	> 501
CN1CC[C@@](O)(c2cccc(-c3cccc(-c4ccnc(Nc5ccn(C)n5)n4)n3)c2)C1=O [Example 22, (R)-3-Hydroxy-1-methyl-3-(3-(6-(2-((1-methyl-1H-pyrazol-3-yl)amino)pyrimidin-4-yl)pyridin-2-yl)phenyl)pyrrolidin-2-one]	–	> 501	> 501

From US20250304567A1, “PYRROLIDIONE DERIVATIVES AS INHIBITORS OF NF KAPPA B INDUCING KINASE” (priority 2022, published 2025)
